Measurements taken from patent US20120101046A1, “PROPHYLACTIC OR THERAPEUTIC AGENT FOR RETINAL DISEASE AND METHOD FOR PROPHYLAXIS OR THERAPY OF RETINAL DISEASE USING JNK (C-JUN AMINO-TERMINAL KINASE) - INHIBITORY PEPTIDE, AND USE OF THE PEPTIDE” (priority 2009, published 2012).
Like-named read-outs stand apart in the source and are kept apart here. Non-standard residues stand in square brackets, D forms with d. Residues, ends and D or L forms follow the SMILES beside them.

How the values were obtained:
[1] = test system: spermidine-induced retinal degeneration model; assay: Spermidine-induced retinal degeneration model, ERG (a-wave) measurement; type: in vivo; settings: rats, intravitreal
Excerpt: Therefore, a spermidine-induced retinal degeneration model is used as a model for evaluating therapeutic agents for diseases involving retinal pigment epithelial damage, such as atrophic AMD (Invest. Ophthalmol. Vis. Sci., 48 (1), 455-463 (2007) (NPL 1); Invest. Ophthalmol. Vis. Sci. 51, ARVO E-abstract 3644 (2010); etc.). Thus, an effect of the JNK-inhibitory peptide of the present invention on photoreceptor cell damage caused by retinal pigment epithelial damage was investigated using the aforementioned model, and then compared with that obtained by the representative JNK-inhibitor, SP600125.
To a control group, 10 μL of Dulbecco PBS was administered. To a vehicle-administered group, 10 μL of a 2 mM solution of spermidine dissolved in Dulbecco PBS was administered. To a peptide A-administered group, a 4 mM solution of spermidine dissolved in Dulbecco PBS was mixed with 0.6 mg/mL peptide A dissolved in Dulbecco PBS to give a 1:1 mixture, and 10 μL of the solution was administered into the vitreous cavity. To an SP600125-administered group, spermidine was dissolved in a 0.3 mg/mL solution of SP600125 dissolved in Dulbecco PBS to give a concentration of 2 mM, and 10 μL of the solution was administered into the vitreous cavity. As spermidine, “Spermidine, Trihydrochloride” (Cat. No. 56766), purchased from Calbiochem, was used. […] As SP600125, “SP600125” (Cat. No. S5567-50 MG), purchased from Sigma Aldrich, was used.
Suppression ratios against reduction in ERG amplitude were subsequently calculated using an equation 1 shown below.
Suppression ratio against reduction in ERG amplitude (%)=((Ex−Ev)/(Ec−Ev))×100, [Equation 1]

[2] = test system: laser-induced rat choroidal neovascularization model; assay: Laser-induced rat choroidal neovascularization model, fluorescent fundus angiography; type: in vivo; settings: rats, intravitreal, 3 μg/eye, day 7 after photocoagulation
Description: As a pharmacological test model for investigating an inhibitory effect on choroidal neovascularization, a laser-induced choroidal neovascularization model is widely used (Folia Ophthalmologica Japonica, 45, 853-856 (1994)).
Photocoagulation was subsequently performed using a krypton laser photocoagulator (manufactured by NIDEK, a multicolor laser photocoagulator MC-7000). With focusing laser beam on the deep retinal layers, photocoagulation was conducted in the posterior portion of the ocular fundus at 8 spots per eye in a dispersed manner, while avoiding thick retinal blood vessels. After photocoagulation, fundus photography was performed to identify the laser-irradiated sites.
To a vehicle-administered group, 5 μL of physiological saline was administered.
Subsequently, 0.1 mL of a 10% fluorescein sodium solution was injected via the tail vein, and fluorescent fundus angiography (manufactured by Kowa, Fundus Camera Kowa PROIII) was performed. In fluorescent fundus angiography, spots at which fluorescence exposure was not observed was determined as negative (without neovascularization), and spots at which fluorescence exposure was observed were determined as positive (with neovascularization). Moreover, when there were two photocoagulation sites at which slight fluorescence exposure was observed, these photocoagulation sites were determined as positive (with neovascularization). […]

[3] = test system: tunicamycin-induced rat photoreceptor cell damage model; settings: rats, intravitreal, 2.7 μg/eye, 7 days after tunicamycin administration
Description: Such a model was thus used to evaluate the usefulness of the JNK-inhibitory peptide of the present invention against photoreceptor cell damage.
General anesthesia was induced in rats by intramuscular administration of 1 mL/kg of a mixture (7:1) of a 5% (W/V) ketamine hydrochloride injection solution and a 2% xylazine hydrochloride injection solution. A 0.5% (W/V) tropicamide-0.5% phenylephrine hydrochloride ophthalmic solution was instilled into their eyes to cause dilation of the pupils. Under conditions that ocular fundus is visualized, a microsyringe (25 μL volume, Hamilton) fitted with a 33 G needle was used and inserted into the vitreous cavity. To a control group, 54 of a mixture (1:9) of dimethyl sulfoxide and physiological saline was administered. […]
After 7 days from the administration of tunicamycin, general anesthesia was induced in the rats under dark adaptation by intramuscular administration of 1 mL/kg of a mixture (7:1) of a 5% (W/V) ketamine hydrochloride injection solution and a 2% xylazine hydrochloride injection solution. […] Then, using an electroretinogram (ERG) measurement apparatus (manufactured by Tomey Corporation, portable ERG&VEP LE-3000), ERGs (a-wave) were measured. Suppression ratio against reduction in ERG amplitude was subsequently calculated using an equation 4 shown below. […]

[4] = 3 μg/eye, 13 days after spermidine administration

Row | SMILES | Suppression ratio against Reduction in ERG (a-Wave) amplitude (%) [1, 4] [%] | Suppression ratio against Reduction in ERG (a-Wave) amplitude (%) ([1]; 3 μg/eye, 13 days after spermidine administration, listed as peptide A) | Suppression Ratio (%) of Choroidal Neovascularization Development [2] [%] | Suppression Ratio (%) of Choroidal Neovascularization Development ([2]; listed as peptide A) | Suppression ratio against Reduction in ERG (a-Wave) amplitude (%) [3] [%] | Suppression ratio against Reduction in ERG (a-Wave) amplitude (%) ([3]; listed as peptide A) | damage suppression effect in the spermidine model [1] | aggravated the reduction in ERG amplitude [1, 4]
1 | CC(C)C[C@@H](NC(=O)[C@@H](CC(N)=O)NC(=O)[C@@H](CC(C)C)NC(=O)[C@H](NC(=O)[C@H](NC(=O)[C@H]1CCCN1C(=O)[C@@H](CCCNC(=N)N)NC(=O)[C@@H](CCCCN)NC(=O)[C@H]1CCCN1C(=O)[C@@H](CCCNC(=N)N)NC(=O)[C@H]1CCCN1C(=O)[C@H]1CCCN1C(=O)[C@@H](CCCNC(=N)N)NC(=O)[C@@H](CCCNC(=N)N)NC(=O)[C@@H](CCCNC(=N)N)NC(=O)[C@@H](CCC(N)=O)NC(=O)[C@@H](CCCNC(=N)N)NC(=O)[C@@H](CCCNC(=N)N)NC(=O)[C@@H](CCCCN)NC(=O)[C@@H](CCCCN)NC(=O)[C@@H](CCCNC(=N)N)NC(=O)CN)[C@H](C)O)[C@H](C)O)C(=O)N[C@H](Cc1ccccc1)C(=O)N1CCC[C@@H]1C(=O)N[C@H](CCC(N)=O)C(=O)N[C@@H](C(=O)N1CCC[C@@H]1C(=O)N[C@H](CCCNC(=N)N)C(=O)N[C@H](CO)C(=O)N[C@H](CCC(N)=O)C(=O)N[C@H](CC(=O)O)C(=O)O)C(C)C [Peptide A] (H-G[dR][dK][dK][dR][dR][dQ][dR][dR][dR][dP][dP][dR][dP][dK][dR][dP][dT][dT][dL][dN][dL][dF][dP][dQ][dV][dP][dR][dS][dQ][dD]-OH) | 72.7 | approximately 73% | 14.3 | approximately 14% | 50.0 | approximately 50% |  | 
2 | Oc1c2ccccc2c2c3c(cccc13)N=N2 [SP600125] | −17.6 |  |  |  |  |  | no damage suppression effect | approximately 18%
